Results taken from patent US7494996B2 (priority 2000, dated 2009).

Experiments:
Sphaerotheca fuliginea = assay: Cucumber Powdery Mildew (CPM) protectant test in the greenhouse; format: in vivo; details: 100 is total disease control, 0 is no disease control; for pest or weed control at 300 g/ha: Podosphaera fuliginea, topical, 168 h, read-out: Cucumber Powdery Mildew (CPM) protectant fungicide data, percent control; for Cucumber Powdery Mildew (CPM) protectant fungicide data, percent control: 300 g/ha
Procedure: Plants used in the fungicide testing program were grown in 2-¼-inch (5.7-cm). square pots containing RediEarth propagation substrate. The plants were raised under greenhouse conditions. The rice plants were 12-days-old and cucumbers were 13-days-old at the time of spraying with chemical treatments.
The sample of the experimental chemical was weighed and dissolved in an acetone-methanol-water solution (A/M/W at 1:1:2 ratio by volume).
After sprayer calibration, the test solutions were poured into the fungicide sprayer. The fungicide sprayer contains three spray nozzles, located approximately 10 cm above and to the sides of the plants. The spray produced by the nozzles results in uniform coverage of both the upper and lower parts of the plant leaves. After spraying, the treated plants were placed in a drying chamber for 4 hours, prior to sorting.
Cucumber Powdery Mildew (CPM), caused by the fungus Sphaerotheca fuliginea, was maintained on large cucumber plants. For inoculum preparation, five to eight leaves depending on size, completely covered with powdery mildew spores, were collected. The leaves were placed in a glass jar and covered with 500 ml of water, containing 5 drops of Tween-80. The material was filtered through two layers of cheesecloth to remove leaf fragments. The spore count was adjusted to 2×10^5 spores per ml.
Cucumber plants, cv. “Bush Champion,” were used for this test. The plants were thinned to one per pot after the cotyledons were fully developed. Two days before the test, the small leaves and meristem region were removed, leaving only the cotyledons and one large true leaf.
The protectant tests required that the cucumber plants be inoculated 1 day after spraying with the chemical treatment. The plants were inoculated with a hand-held spray bottle with the suspension of fungal spores. The leaves were lightly misted on the upper surface from two different spray directions. Disease development occurred in the greenhouse.
After seven days, the plants were evaluated for percent of disease control. The results are reported as percent control; 100 is total disease control, 0 is no disease control.

Pyricularia oryzae = assay: whole plant or invertebrate; format: in vivo; details: 100 is total disease control, 0 is no disease control; for pest or weed control at 300 g/ha: Pyricularia oryzae, topical, 144 h, read-out: Rice Blast (RB) protectant fungicide data, percent control, protectant, 300 g/ha, greenhouse; for Rice Blast (RB) protectant fungicide data, percent control: 300 g/ha, greenhouse

SMILES | pest or weed control at 300 g/ha (Sphaerotheca fuliginea) | pest or weed control at 300 g/ha (Pyricularia oryzae) | Cucumber Powdery Mildew (CPM) protectant fungicide data, percent control (Sphaerotheca fuliginea) | Rice Blast (RB) protectant fungicide data, percent control (Pyricularia oryzae)
COC1NC(c2cc(Cl)cc(Cl)c2)=NN(CC(F)(F)F)C1=O (stereo not shown) [Compound 18, 1-(2,2,2-Trifluoroethyl)-3-(3,5-dichlorophenyl)-5-methoxy-4,5-dihydro-1,2,4-triazin-6-one] | 75% | 95% |  | 
CC(=O)CC1NC(c2ccc(Cl)cc2)=NN(CC(F)(F)F)C1=O (stereo not shown) [Compound 20, 1-(2,2,2-Trifluorethyl)-3-(4-chlorophenyl)-5-(2-propanone)-4,5-dihydro-1,2,4-triazin-6-one] |  |  | 75 percent control | 50 percent control
O=c1[nH]c(-c2cc(Cl)cc(Cl)c2)nn(CC(F)(F)F)c1=O [Compound 21, 1-(2,2,2-Trifluorethyl)-3-(3,5-dichlorophenyl)-1,2,4-triazin-5,6-dione] |  |  | 50 percent control | 0 percent control
CCCCN1Nc2c3c(Cl)c(Cl)ccc3cn2CC1=O [Compound 23, 9,10-Dichloro-2-butyl-1,2,4-triazino[3,4-a]isoindol-3(4H)-one] | 50% | 0% |  | 
CCCCCN1N=C2C=CC(c3ccc(Cl)cc3)=NN2CC1=O [Compound 24, 2-Pentyl-7-(4-chlorophenyl)-pyridazino[6,1-c][1,2,4]triazin-3(4H)one] | 50% | 0% |  | 
CCCCN1C=C2c3ccccc3OC(=O)N2CC1=O [Compound 25, 3-n-Butyl-3H-9-oxa-3,10a-diaza-phenanthrene-2,10-dione] | 0% | 75% |  | 
O=C1CNC(c2ccc(Cl)cc2)=NN1c1ccccc1 [Compound 28] |  |  | 85 percent control | 85 percent control
O=C1CNC(c2ccc(Cl)cc2)=NN1Cc1ccccc1 [Compound 30] |  |  | 75 percent control | 85 percent control
CN1N=C(c2ccccc2)NCC1=O [Compound 31] |  |  | 0 percent control | 50 percent control
O=C1CNC(c2ccccc2)=NN1 [Compound 32] |  |  | 50 percent control | 75 percent control
COc1ccc(C2=NN(CC(F)(F)F)C(=O)CN2)cc1 [Compound 35] |  |  | 50 percent control | 50 percent control
CCCCN1N=C(c2ccc(OC)cc2)NCC1=O [Compound 36] |  |  | 50 percent control | 99 percent control
CCCCN1N=C(c2ccc(OC)cc2)NC(C)C1=O (stereo not shown) [Compound 38] |  |  | 50 percent control | 0 percent control
COc1ccc(C2=NN(CC(F)(F)F)C(=O)C(OC)N2)cc1 (stereo not shown) [Compound 39] |  |  | 85 percent control | 99 percent control
CS(=O)(=O)N1CC(=O)N(CC(F)(F)F)N=C1c1ccc(Cl)cc1 [Compound 42] |  |  | 50 percent control | 99 percent control
O=C1CNC(C2CCCCC2)=NN1CC(F)(F)F [Compound 45] |  |  | 0 percent control | 75 percent control
COc1cccc(C2=NN(CC(F)(F)F)C(=O)CN2)c1 [Compound 46] |  |  | 0 percent control | 80 percent control
Cc1c(Cl)cc(C2=NN(CC(F)(F)F)C(=O)CN2)cc1Cl [Compound 47] |  |  | 80 percent control | 100 percent control
CCCCCN1N=C(c2cc(Cl)c(C)c(Cl)c2)NCC1=O [Compound 49] |  |  | 75 percent control | 95 percent control
O=C1CNC(c2ccc(C(F)(F)F)cc2)=NN1CC(F)(F)F [Compound 51] |  |  | 0 percent control | 90 percent control
O=C1C(O)NC(c2ccccn2)=NN1CC(F)(F)F (stereo not shown) [Compound 53] |  |  | 0 percent control | 75 percent control

SMILES | pest or weed control at 300 g/ha (Sphaerotheca fuliginea) | pest or weed control at 300 g/ha (Pyricularia oryzae) | Cucumber Powdery Mildew (CPM) protectant fungicide data, percent control (Sphaerotheca fuliginea) | Rice Blast (RB) protectant fungicide data, percent control (Pyricularia oryzae)
CCCCCN1N=C(c2ccc(Cl)cc2)NCC1=O [Compound 54] |  |  | 85 percent control | 99 percent control
CCCCCCN1N=C(c2ccc(Cl)cc2)NCC1=O [Compound 55] |  |  | 50 percent control | 90 percent control
CCCCCCCCN1N=C(c2ccc(Cl)cc2)NCC1=O [Compound 56] |  |  | 80 percent control | 80 percent control
CCCCCCCCCCN1N=C(c2ccc(Cl)cc2)NCC1=O [Compound 57] |  |  | 0 percent control | 50 percent control
Cc1cccc(N2N=C(c3ccc(Cl)cc3)NCC2=O)c1 [Compound 58] |  |  | 50 percent control | 85 percent control
O=C1CNC(c2ccc(Cl)cc2)=NN1c1ccccn1 [Compound 59] |  |  | 0 percent control | 50 percent control
N#CCN1N=C(c2ccc(Cl)cc2)NCC1=O [Compound 60] |  |  | 0 percent control | 75 percent control
C[Si](C)(C)CN1N=C(c2ccc(Cl)cc2)NCC1=O [Compound 61] |  |  | 50 percent control | 85 percent control
O=C1CNC(c2ccc(Cl)cc2)=NN1Cc1ccc(Cl)s1 [Compound 62] |  |  | 0 percent control | 85 percent control
O=C1CNC(c2cc(Cl)cc(Cl)c2)=NN1 [Compound 64] |  |  | 0 percent control | 50 percent control
C=C(Cl)CN1N=C(c2cc(Cl)cc(Cl)c2)NCC1=O [Compound 65] |  |  | 50 percent control | 95 percent control
CCCCN1N=C(c2sc(C)nc2C(F)(F)F)NCC1=O [Compound 68] |  |  | 50 percent control | 0 percent control
COC(=O)N1CC(=O)N(CC(F)(F)F)N=C1c1cc(Cl)cc(Cl)c1 [Compound 71] |  |  | 50 percent control | 75 percent control
CC(=O)N1CC(=O)N(CC(F)(F)F)N=C1c1cc(Cl)cc(Cl)c1 [Compound 72] |  |  | 50 percent control | 75 percent control
O=C1CNC(c2ccc(Cl)cc2Cl)=NN1CC(F)(F)F [Compound 73] |  |  | 75 percent control | 85 percent control
CCCCN1N=C(c2cc(Cl)ccc2Cl)NCC1=O [Compound 74] |  |  | 0 percent control | 99 percent control
CCCCN1N=C(C)NC(c2ccc(C)cc2)C1=O (stereo not shown) [Compound 75] |  |  | 85 percent control | 0 percent control
CCCCN1N=C(C)NC(c2ccccc2C)C1=O (stereo not shown) [Compound 76] |  |  | 25 percent control | 0 percent control
CCCCN1N=C(C)NC(c2cccc(C)c2)C1=O (stereo not shown) [Compound 77] |  |  | 50 percent control | 0 percent control
CCCCN1N=C(C)NC(c2cccc(N)c2)C1=O (stereo not shown) [Compound 78] |  |  | 25 percent control | 0 percent control
